Experimental data as given in patent publication US20170226120A1, “INHIBITORS OF HIF PROLYL HYDROXYLASE” (MERCK SHARP & DOHME CORP., priority 2014, published 2017).

Assays:
[1] = Tissue PK profile in rat (liver and plasma drug level); type: in vivo; conditions: 10 mg/kg; for concentration at 4 h: in vivo, po; for Kp at 4 h: liver/plasma, 4 hours after PO dosing at 10 mpk, vehicle 0.5% MC, read-out: liver/plasma ratio
Protocol: The tissue PK profile of compounds described in this application were evaluated in rat. The tissue was harvested 4 hours after PO dosing at 10 mpk (vehicle: 0.5% MC; dose volume: 5 mL/Kg) and the drug level was determined. Shown in Table 1 are compound concentrations of selected examples in rat liver and plasma, as well as liver to plasma drug ratio.

human HIF-PHD2 = target: T1, human HIF-PHD2 (Homo sapiens, UniProt Q9GZT9); assay: HIF-PHD2 inhibition, time resolved fluorescence assay of HIF-1α peptide hydroxylation; type: biochemical; conditions: FLAG-tagged full length PHD2; 0.2 μM 2-oxoglutarate, 0.5 μM HIF-1α peptide
T1 construct: FLAG-tagged full length PHD2 expressed in and purified from baculovirus-infected Sf9 cells; FLAG; made in house; host or cells: baculovirus-infected Sf9 cells
T1 sequence (Q9GZT9 whole entry): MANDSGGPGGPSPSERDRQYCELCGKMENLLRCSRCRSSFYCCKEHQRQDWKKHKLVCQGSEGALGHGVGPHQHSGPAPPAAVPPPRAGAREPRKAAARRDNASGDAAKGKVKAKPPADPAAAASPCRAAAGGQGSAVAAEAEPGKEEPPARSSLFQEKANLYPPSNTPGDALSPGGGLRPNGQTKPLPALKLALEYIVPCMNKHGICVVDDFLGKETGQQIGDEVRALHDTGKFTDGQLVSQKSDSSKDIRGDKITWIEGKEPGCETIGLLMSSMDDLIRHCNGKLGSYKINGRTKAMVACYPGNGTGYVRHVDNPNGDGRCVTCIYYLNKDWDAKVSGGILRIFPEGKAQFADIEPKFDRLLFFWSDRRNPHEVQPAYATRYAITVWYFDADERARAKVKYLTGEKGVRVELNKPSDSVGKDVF
Protocol: To each well of a 384-well plate, 1 μL of test compounds in DMSO (final concentration ranging from 0.3 nM to 10 uM) were added into 20 μl of assay buffer (50 mM Tris pH 7.4/0.01% Tween-20/0.1 mg/ml bovine serum albumin/10 μM ferrous sulfate/1 mM sodium ascorbate/20 μg/ml catalase) containing 0.15 μg/ml FLAG-tagged full length PHD2 expressed in and purified from baculovirus-infected Sf9 cells. After a 5 min preincubation at room temperature, the enzymatic reactions were initiated by the addition of 4 μL of substrates {final concentrations of 0.2 μM 2-oxoglutarate and 0.5 μM HIF-1α peptide biotinyl-[…] […] After incubation for 45 minutes at room temperature, the reactions were terminated by the addition of a 25 μL quench/detection mix to a final concentration of 1 mM ortho-phenanthroline, 0.1 mM EDTA, 0.5 nM anti-(His)6 LANCE reagent (Perkin-Elmer Life Sciences), 100 nM AF647-labeled streptavidin (Invitrogen), and 2 μg/ml (His)6-VHL complex {S. Tan Protein Expr. Purif.

SMILES | IC50 (human HIF-PHD2) [nM] | concentration at 4 h ([1]; liver concentration) [nM] | concentration at 4 h ([1]; plasma concentration) [nM] | Kp at 4 h [1]
CC(C)(O)c1ccc(Cn2c3c(c(O)c(C(=O)NCC(=O)O)c2=O)COC3)cc1 [Example 5, 2-(4-Hydroxy-1-(4-(2-hydroxypropan-2-yl)benzyl)-2-oxo-1,2,5,7-tetrahydrofuro[3,4-b]pyridine-3-carboxamido)acetic acid] | – | 5600 | 26.7 | 214
O=C(O)CNC(=O)c1c(O)c2c(n(Cc3ncc(C(F)(F)F)cn3)c1=O)COC2 [Example 9, 2-(4-hydroxy-2-oxo-1-((5-(trifluoromethyl)pyrimidin-2-yl)methyl)-1,2,5,7-tetrahydrofuro[3,4-b]pyridine-3-carboxamido)acetic acid] | – | 1810 | 37.6 | 43.6
O=C(O)CNC(=O)c1c(O)c2c(n(Cc3cnc(C(F)(F)F)cn3)c1=O)COC2 [Example 11, 2-(4-hydroxy-2-oxo-1-((5-(trifluoromethyl)pyrazin-2-yl)methyl)-1,2,5,7-tetrahydrofuro[3,4-b]pyridine-3-carboxamido)acetic acid] | – | 7900 | 22 | 359
O=C(O)CNC(=O)c1c(O)c2c(n(Cc3cnc(C(F)(F)F)nc3)c1=O)COC2 [Example 12, 2-(4-hydroxy-2-oxo-1-((2-(trifluoromethyl)pyrimidin-5-yl)methyl)-1,2,5,7-tctrahydrofuro[3,4-b]pyridine-3-carboxamido)acetic acid] | – | 775 | 12.3 | 67.3
O=C(O)CNC(=O)c1c(O)c2c(n(Cc3cnc(C(F)(F)F)s3)c1=O)COC2 [Example 18, 2-(4-hydroxy-2-oxo-1-((2-(trifluoromethyl)thiazol-5-yl)methyl)-1,2,5,7-tetrahydrofuro[3,4-b]pyridine-3-carboxamido)acetic acid] | – | 11800 | 55.9 | 258
O=C(O)CNC(=O)c1c(O)c2c(n(Cc3nc(C(F)(F)F)cs3)c1=O)COC2 [Example 21, 2-(4-hydroxy-2-oxo-1-((4-(trifluoromethyl)thiazol-2-yl)methyl)-1,2,5,7-tetrahydrofuro[3,4-b]pyridine-3-carboxamido)acetic acid] | – | 4770 | 8 | 587
O=C(O)CNC(=O)c1c(O)c2c(n(Cc3ccn(-c4ccccc4)n3)c1=O)COC2 [Example 22, 2-(4-hydroxy-2-oxo-1-((1-phenyl-1H-pyrazol-3-yl)methyl)-1,2,5,7-tetrahydrofuro[3,4-b]pyridine-3-carboxamido)acetic acid] | – | 816 | 11.8 | 66.6
O=C(O)CNC(=O)c1c(O)c2c(n(Cc3ccc(Cl)cc3)c1=O)COC2 [Example 27, 2-(1-(4-chlorobenzyl)-4-hydroxy-2-oxo-1,2,5,7-tetrahydrofuro[3,4-b]pyridine-3-carboxamido)acetic acid] | – | 21500 | 551 | 39.6
O=C(O)CNC(=O)c1c(O)c2c(n(Cc3ccc(F)cc3F)c1=O)COC2 [Example 32, 2-(1-(2,4-difluorobenzyl)-4-hydroxy-2-oxo-1,2,5,7-tetrahydrofuro[3,4-b]pyridine-3-carboxamido)acetic acid] | – | 24800 | 492 | 52.8
O=C(O)CNC(=O)c1c(O)c2c(n(Cc3cc(F)c(F)cc3F)c1=O)COC2 [Example 41, 2-(4-hydroxy-2-oxo-1-(2,4,5-trifluorobenzyl)-1,2,5,7-tetrahydrofuro[3,4-b]pyridine-3-carboxamido)acetic acid] | – | 41400 | 476 | 87.3
O=C(O)CNC(=O)c1c(O)c2c(n(Cc3nc4ccccc4o3)c1=O)COC2 [Example 46, 2-(1-(benzo[d]oxazol-2-ylmethyl)-4-hydroxy-2-oxo-1,2,5,7-tetrahydrofuro[3,4-b]pyridine-3-carboxamido)acetic acid] | – | 2070 | 34.5 | 55
Cn1c2c(c(O)c(C(=O)NCC(=O)O)c1=O)COC2 [Example 55, 2-(1-methyl-4-hydroxy-2-oxo-1,2,5,7-tetrahydrofuro[3,4-b]pyridine-3-carboxamido)acetic acid] | 10.4 | – | – | –
CC(c1ccc(C(F)(F)F)cc1)n1c2c(c(O)c(C(=O)NCC(=O)O)c1=O)COC2 (stereo not shown) [Example 56, 2-(4-hydroxy-2-oxo-1-(1-(4-(trfluoromethyl)phenyl)ethyl)-1,2,5,7-tetrahydrofuro[3,4-b]pyridine-3-carboxamido)acetic acid] | 19.6 | – | – | –

The next lines start with results.

IC50 (human HIF-PHD2) [nM] | SMILES | concentration at 4 h ([1]; liver concentration) [nM] | concentration at 4 h ([1]; plasma concentration) [nM] | Kp at 4 h [1]
5.1 | Cc1cc(C#N)ccc1Cn1c2c(c(O)c(C(=O)NCC(=O)O)c1=O)COC2 [Example 49, 2-(1-(4-cyano-2-methylbenzyl)-4-hydroxy-2-oxo-1,2,5,7-tetrahydrofuro[3,4-b]pyridine-3-carboxamido)acetic acid] | – | – | –
5 | Cc1cc(Cn2c3c(c(O)c(C(=O)NCC(=O)O)c2=O)COC3)ccc1Cl [Example 50, 2-(1-(4-chloro-3-methylbenzyl)-4-hydroxy-2-oxo-1,2,5,7-tetrahydrofuro[3,4-b]pyridine-3-carboxamido)acetic acid] | – | – | –
6.8 | COc1ccc(Cn2c3c(c(O)c(C(=O)NCC(=O)O)c2=O)COC3)cn1 [Example 51, 2-(4-hydroxy-1-((6-methoxypyridin-3-yl)methyl)-2-oxo-1,2,5,7-tetrahydrofuro[3,4-b]pyridine-3-carboxamido)acetic acid] | – | – | –
2.7 | O=C(O)CNC(=O)c1c(O)c2c(n(Cc3ccc(Cl)cc3F)c1=O)COC2 [Example 52, 2-(1-(4-chloro-2-fluorobenzyl)-4-hydroxy-2-oxo-1,2,5,7-tetrahydrofuro[3,4-b]pyridine-3-carboxamido)acetic acid] | – | – | –
7.1 | N#Cc1ccc(Cn2c3c(c(O)c(C(=O)NCC(=O)O)c2=O)COC3)cc1F [Example 53, 2-(1-(4-cyano-3-fluorobenzyl)-4-hydroxy-2-oxo-1,2,5,7-tetrahydrofuro[3,4-b]pyridine-3-carboxamido)acetic acid] | – | – | –
17.4 | CCn1c2c(c(O)c(C(=O)NCC(=O)O)c1=O)COC2 [Example 54, 2-(1-ethyl-4-hydroxy-2-oxo-1,2,5,7-tetrahydrofuro[3,4-b]pyridine-3-carboxamido)acetic acid] | – | – | –
7.2 | O=C(O)CNC(=O)c1c(O)c2c(n(Cc3ccc(C(=O)O)cc3)c1=O)COC2 [Example 57, 4-((3-((Carboxymethyl)carbamoyl)-4-hydroxy-2-oxofuro[3,4-b]pyridin-1(2H,5H,7H)-yl)methyl)benzoic acid] | – | – | –
17.4 | O=C(O)CNC(=O)c1c(O)c2c(n(Cc3ccccc3C(=O)O)c1=O)COC2 [Example 58, 2-((3-((carboxymethyl)carbamoyl)-4-hydroxy-2-oxofuro[3,4-b]pyridin-1(2H,5H,7H)-yl)methyl)benzoic acid] | – | – | –
8 | O=C(O)CNC(=O)c1c(O)c2c(n(Cc3cccc(C(=O)O)c3)c1=O)COC2 [Example 59, 3-((3-((carboxymethyl)carbamoyl)-4-hydroxy-2-oxofuro[3,4-b]pyridin-1(2H,5H,7H)-yl)methyl)benzoic acid] | – | – | –
4.3 | NC(=O)c1ccc(Cn2c3c(c(O)c(C(=O)NCC(=O)O)c2=O)COC3)cc1 [Example 60, 2-(1-(4-Carbamoylbenzyl)-4-hydroxy-2-oxo-1,2,5,7-tetrahydrofuro[3,4-b]pyridine-3-carboxamido)acetic acid] | – | – | –
3.7 | C=Cc1ccc(Cn2c3c(c(O)c(C(=O)NCC(=O)O)c2=O)COC3)cn1 [Example 62, 2-(4-Hydroxy-2-oxo-1-((6-vinylpyridin-3-yl)methyl)-1,2,5,7-tetrahydrofuro[3,4-b]pyridine-3-carboxamido)acetic acid] | – | – | –
5.4 | CCc1ccc(Cn2c3c(c(O)c(C(=O)NCC(=O)O)c2=O)COC3)cn1 [Example 63, 2-(4-Hydroxy-2-oxo-1-((6-ethylpyridin-3-yl)methyl)-1,2,5,7-tetrahydrofuro[3,4-b]pyridine-3-carboxamido)acetic acid] | – | – | –
1.2 | Cc1cc(C(=O)O)ccc1-c1ccc(Cn2c3c(c(O)c(C(=O)NCC(=O)O)c2=O)COC3)cc1 [Example 64, 4′-((3-((Carboxymethyl)carbamoyl)-4-hydroxy-2-oxofuro[3,4-b]pyridin-1(2H,5H,7H)-yl)methyl)-2-methyl-[1,1′-biphenyl]-4-carboxylic acid] | – | – | –
11.8 | O=C(O)CNC(=O)c1c(O)c2c(n(Cc3ccc4[nH]cnc4c3)c1=O)COC2 [Example 65, 2-(1-((1H-Benzo[d]imidazol-5-yl)methyl)-4-hydroxy-2-oxo-1,2,5,7-tetrahydrofuro[3,4-b]pyridine-3-carboxamido)acetic acid] | – | – | –
